Key:
[1] = target: T1, Phosphatidylinositol 4,5-bisphosphate 3-kinase catalytic subunit delta isoform (Homo sapiens, UniProt O00329); assay: Inhibition of PI3K-delta (unknown origin)
T1 sequence (O00329 whole entry): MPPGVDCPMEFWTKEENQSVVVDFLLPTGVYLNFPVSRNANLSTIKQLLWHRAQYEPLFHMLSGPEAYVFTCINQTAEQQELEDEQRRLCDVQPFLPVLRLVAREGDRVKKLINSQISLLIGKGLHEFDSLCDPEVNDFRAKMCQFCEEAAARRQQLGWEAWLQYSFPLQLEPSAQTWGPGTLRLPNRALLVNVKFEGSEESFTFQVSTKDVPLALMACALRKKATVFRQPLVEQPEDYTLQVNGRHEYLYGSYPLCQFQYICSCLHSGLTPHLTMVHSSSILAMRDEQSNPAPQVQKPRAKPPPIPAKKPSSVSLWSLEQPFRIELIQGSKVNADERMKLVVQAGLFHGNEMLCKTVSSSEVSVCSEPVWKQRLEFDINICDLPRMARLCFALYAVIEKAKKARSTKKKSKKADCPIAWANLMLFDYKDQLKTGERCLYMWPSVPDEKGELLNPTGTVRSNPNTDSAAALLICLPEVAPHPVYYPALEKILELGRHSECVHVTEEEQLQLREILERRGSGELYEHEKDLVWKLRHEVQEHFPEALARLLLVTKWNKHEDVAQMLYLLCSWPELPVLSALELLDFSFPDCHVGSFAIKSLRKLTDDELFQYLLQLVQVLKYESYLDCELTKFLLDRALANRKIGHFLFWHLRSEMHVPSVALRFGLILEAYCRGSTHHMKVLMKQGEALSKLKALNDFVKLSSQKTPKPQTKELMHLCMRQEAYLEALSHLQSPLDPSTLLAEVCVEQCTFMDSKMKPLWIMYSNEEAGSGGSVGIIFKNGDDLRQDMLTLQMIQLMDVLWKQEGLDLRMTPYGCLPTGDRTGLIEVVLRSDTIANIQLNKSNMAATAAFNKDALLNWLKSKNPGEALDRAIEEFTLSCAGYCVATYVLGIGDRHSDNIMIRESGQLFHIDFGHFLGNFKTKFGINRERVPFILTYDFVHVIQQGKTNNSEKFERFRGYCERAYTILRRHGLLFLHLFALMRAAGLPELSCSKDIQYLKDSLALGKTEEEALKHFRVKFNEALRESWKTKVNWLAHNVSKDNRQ

[2] = Inhibition of C-terminal PI3Kdelta/p85 (unknown origin) expressed in baculovirus expression system using Phosphatidylinositol as substrate in presence of ATP by TR-FRET assay; design: species or system Homo sapiens

Compound C=Cc1ccc2oc3ccc(=O)n(-c4cccc(NC(=O)c5ccc(OC)nc5)c4)c3c2c1 has an IC50 [1] of 170 nM.
For C[C@H](Nc1ncnc2scnc12)c1cc2cccc(-c3cnn(C)c3)c2c(=O)n1-c1ccccc1, the IC50 [2] was less than 100 nM.

Source: ChEMBL document CHEMBL4715851, “Research advances on selective phosphatidylinositol 3 kinase δ (PI3Kδ) inhibitors” (Bioorg Med Chem Lett, 2020)
